Reference: patent US12053504B2, “Anti-angiogenic treatment using VLO4 with a blocking peptide” ([…] OF PHARMACY, LLC, priority 2011, dated 2024)
Entries after “also recorded” stand apart in the source; their conditions may differ.

Columns and labels:
HDMEC = test: Microcarrier (EC-bead) in vitro sprout angiogenesis assay of HDMEC in fibrin gel; type: cell-based, human; conditions: for sprout angiogenesis in a HDMEC culture in VEGF and bFGF (Example 4): agent(s) added to HDMEC culture in VEGF and bFGF, doses not printed in this block; for sprout angiogenesis of HDMEC in fibrin induced by VEGF and bFGF: 3 days; for sprout angiogenesis of HDMEC in fibrin, single agent (Example 4 summary): in vitro, doses not given
Procedure: Human dermal microvascular endothelial cells (HDMEC) were isolated from human neonatal foreskins. Briefly, after initial harvest from minced trypsinized human foreskins, microvascular endothelial cells were further purified on a PERCOLL density gradient. HDMEC were cultured on collagen type 1 coated tissue culture flasks in EGM (endothelial cell growth medium) consisting of EBM supplemented with 10 ng/ml epidermal growth factor, 0.4% bovine brain extract, 17.5 microg/ml dibutyryl cyclic AMP, and 1 microg/ml hydrocortisone in the presence of 30% normal human serum. Endothelial cell cultures were characterized and determined to be >99% pure on the basis of formation of typical cobblestone monolayers in culture, positive immunostaining for factor VIII-related antigen, and selective uptake of acetylated low density lipoprotein. All experiments were done with HDMEC below passage 10. Bovine aortic endothelial cells (BAEC) were obtained from BioWhittaker, Inc. (Walkersville, MD) and cultured according to manufacturer's instruction. BAEC between passage 4 and 8 were used for experiments.
Gelatin-coated CYTODEX-3 microcarrier beads were prepared as described by the manufacturer. Approximately 80,000 sterile microcarrier beads were washed, resuspended in EGM, and added to approximately 4.5 million endothelial cells (HDMEC or BAEC). The beads and cells were mixed by gentle swirling, incubated at 37° C. for 6 hr, and then rotated for 24-36 hr on an orbital mixer in a 37° C. oven to generate endothelial cell-loaded microcarrier beads (EC-beads).
FIGS. 1A-1C illustrate a study of human microvascular endothelial cell angiogenesis, according to some embodiments. A microcarrier, in vitro angiogenesis assay, previously designed to investigate bovine pulmonary artery endothelial cell angiogenic behavior in bovine fibrin gels, was modified for the study of human microvascular endothelial cell angiogenesis. The HDMEC were isolated from human neonatal foreskins and used, as described above, and images were captured at various magnifications, where the effect of angiogenic factors on sprout angiogenesis was quantified visually by counting the number and percent of EC-beads with capillary sprouts. […]
For experiments using RGD peptides, EC-beads were firstly incubated with vary concentrations of peptides for one hour and then were added to the ECM solutions. About 500 EC-beads were then added to the ECM protein solutions, followed by the addition of 0.5 U/ml human thrombin. A 0.3 ml aliquot of each suspension was immediately added to appropriate wells of a 24-well tissue culture plate. After gelation, 1 ml of fresh assay medium (EBM supplemented with 20% normal human serum for HDMEC or EBM supplemented with 10% fetal bovine serum for BAEC) was added to each well.
FIGS. 1B and 1C show how the angiogenic response was monitored visually and recorded by video image capture. Specifically, capillary sprout formation was observed and recorded with a NIKON Diaphot-TMD inverted microscope (Nikon Inc., Melville, NY), equipped with an incubator housing with a NIKON NP-2 thermostat and Sheldon #2004 carbon dioxide flow mixer. The microscope was directly interfaced to a video system consisting of a Dage-MTI CCD-72S video camera and Sony 12″ PVM-122 video monitor linked to a Macintosh G3 computer. The images were captured at various magnifications using Adobe Photoshop. The effect of angiogenic factors on sprout angiogenesis was quantified visually by determining the number and percent of EC-beads with capillary sprouts. 100-200 beads (five random low power fields) in each of triplicate wells were counted for each experimental condition. All experiments were repeated at least three times.

HT1080 tumor cell = HT1080 tumor cell invasion from contracted collagen into fibrin 3D matrices; type: cell-based; conditions: for HT1080 tumor cell invasion from contracted collagen into fibrin 3D matrices: 3 μg/ml, FIGS. 11 and 12
colorectal cancer = conditions: in combination with the standard Saltz regime of irinotecan, 5-fluorouracil, and leucovorin; cited from earlier work
[1] = molecular target: collagen receptors α2β1 integrins (Homo sapiens, UniProt P05556+P17301); conditions: cited from earlier work
[2] = test system: H1650 (Human metastatic lung cancer cell line); test: H1650 tumor cell proliferation; type: cell-based; conditions: FIG. 13
[3] = test system: A549 (human alveolar adenocarcinoma cell line); test: A549 tumor cell proliferation; type: cell-based; conditions: FIG. 13

GPenGRGDSPCA [RGD[VN], reference compound]
sprout angiogenesis of HDMEC in fibrin (HDMEC; RGD[VN] 12.5 mM-100 mM, pre-incubated 1 hr at RT, VEGF 100 ng/ml, compared to GRGESP[RGE] control peptide, FIG. 4): significantly inhibited

Echistatin (QCESGPCCRNCKFLKEGTICKRARGDDMDDYCNGKTCDCPRNPHKGPAT)
sprout angiogenesis in a HDMEC culture in VEGF and bFGF (Example 4) (HDMEC): inhibition | sprout angiogenesis of HDMEC in fibrin induced by VEGF and bFGF (HDMEC; echistatin 0.1 μg/ml alone, VEGF 30 ng/ml, bFGF 25 ng/ml, FIG. 10B): didn't significantly inhibit | sprout angiogenesis of HDMEC in fibrin, single agent (Example 4 summary) (HDMEC): dose dependently inhibits | HT1080 tumor cell invasion from contracted collagen into fibrin 3D matrices (HT1080 tumor cell): significantly inhibit

AVASTATIN: human monoclonal antibody to VEGF
increase in survival time (colorectal cancer): more than 30%

VP12
sprout angiogenesis of HDMEC in fibrin induced by VEGF and bFGF (HDMEC; VP12 10 μg/ml alone, VEGF 30 ng/ml, bFGF 25 ng/ml): didn't significantly inhibit | enhancement of the inhibition of sprout angiogenesis by echistatin (HDMEC; VP12 (ECL12) administered in combination with echistatin): significantly and synergistically enhanced | sprout angiogenesis in a HDMEC culture in VEGF and bFGF (Example 4) (HDMEC): inhibition | sprout angiogenesis of HDMEC in fibrin, single agent (Example 4 summary) (HDMEC): no inhibitory effect | HT1080 tumor cell invasion from contracted collagen into fibrin 3D matrices (HT1080 tumor cell): significantly inhibit | inhibitory activity against collagen receptors α2β1 integrins [1]: potent inhibitory activity

B1: VLO4 (protein)
chain: MNSGNPCCDPVTCKPRRGEHCVSGPCCRNCKFLNAGTICKRARGDDMNDYCTGISPDCPRNPWKG
sprout angiogenesis of HDMEC in fibrin induced by VEGF and bFGF (HDMEC; VLO4 0.01 μg/ml alone, VEGF 30 ng/ml, bFGF 25 ng/ml): didn't significantly inhibit | sprout angiogenesis of HDMEC induced by VEGF in fibrin (HDMEC; VLO4 0.3 μg/ml-3 μg/ml, 30 minutes at RT, VEGF 100 ng/ml, FIG. 5): dose-dependently inhibits | disruption of newly formed angiogenic sprouts of HDMEC in fibrin (HDMEC; VLO4 3 μg/ml added on day 5, read within 24 hours, VEGF 30 ng/ml, bFGF 25 ng/ml, CH2 10 μg/ml, FIG. 7B): totally disrupted; also recorded: disrupts | sprout angiogenesis of HDMEC induced by VEGF in fibrin (micrographs) (HDMEC; VLO4 0.01, 0.1, 0.3 and 1 μg/ml, 30 minutes at room temperature, VEGF 100 ng/ml, FIGS. 6A-6D): dose-dependently inhibits | HT1080 tumor cell invasion from contracted collagen into fibrin 3D matrices (HT1080 tumor cell): significantly inhibit | HT1080 tumor cell invasion from contracted 3D collagen matrices into 3D fibrin matrices, dose dependence (HT1080 tumor cell; FIG. 11): dose dependently inhibits | H1650 tumor cell proliferation [2]: significantly inhibited | A549 tumor cell proliferation [3]: significantly inhibited
